Several values for one entry are separate records, joined by “and”; a condition that tells them apart may be missing. Identical values can stand only once. Counter-ions that a name gives are not always drawn. Like-named read-outs stand apart in the source and are kept apart here.
What was measured:
[1] = Acute toxicity on white mice (LD50 p.o.); parameters: species or system strain CFLP, both sexes; conditions: mouse, in vivo, po
Protocol: Acute toxicity of the compounds was tested on white mice of both sexes from the strain CFLP in groups consisting of 10 animals weighing 18 to 22 g. The compounds to be tested were administered perorally in a volume of 20 ml/kg. […] The animals could consume tap water and standard mouse feed ad libitum. The LD50 -values were determined according to Litchfield and Wilcoxon [J. Pharmacol. Exp. Ther., 96, 99 (1949)].

[2] = system: tremor induced by tremorine; assay: Inhibition of tremor induced by tremorine on mice; assay type: in vivo; conditions: for ED50: Mus musculus, po, 1 h before tremorine 20 mg/kg i.p., evaluated 45 minutes after tremorine; for Therapeutical index LD50/ED50: tremorine tremor, p.o.
Protocol: The tests were carried out according to Everett [Science, 124, 79 (1956)]. Tremor was induced by tremorine [1,1'-(2-butynylene)-dipyrrolidine] administered intraperitoneally at a dosage of 20 mg/kg. The compounds to be examined were given perorally to the animals one hour prior to the administration of tremorine, and the tremor developed was evaluated 45 minutes after the administration of tremorine.

[3] = system: sleep induced with hexobarbital; assay: Narcosis potentiating activity (sleep induced with hexobarbital on mice); assay type: in vivo; conditions: for ED50: Mus musculus, po, 1 h before hexobarbital 40 mg/kg i.v., positive = sleep exceeding control mean by factor 2,5; for Therapeutical index LD50/ED50: p.o.
Protocol: Groups consisting of 6 mice each were treated with the compound to be examined, perorally. After one hour, hexobarbital [5-(1-cyclohexenyl)-1,5-dimethylbarbituric acid] was injected, intravenously, at a dosage of 40 mg/kg. The control group was treated only with hexobarbital to provoke sleep. The duration of sleep was recorded. If the duration of sleep of an animal exceeded that of the mean value of the control group by a factor of 2,5, it was considered as a positive reaction. From the data referring to the animals indicating a positive reaction, the ED50 -value was calculated. From the values of LD50 and ED50, the therapeutical index was determined for each compound tested.

mice = assay: Motility inhibiting activity (Dews equipment); assay type: in vivo; conditions: for ED50: Mus musculus, po, 0.5 h, interruptions of infrared beam within 30 minutes; for Therapeutical index LD50/ED50: motility inhibition, p.o.
Protocol: The tests were performed according to the method of Borsy et al. [Arch. Int. Pharmacolyn., 124, 1-2 (1960)]. […] Then the test animals were placed in a Dews equipment. In this equipment the number of interruptions of infrared beam within 30 minutes was counted. The percentual deviation from the number of interruptions in the case of the control group was determined in each group, then the ED50 -values and therapeutical indexes were calculated.

[4] = system: tonic-extensoric spasms on the hind limbs (pentetrazole); assay: Spasmolytic action on mice (pentetrazole-induced tonic-extensoric spasms); assay type: in vivo, white mice; conditions: for ED50: Mus musculus, po; for Therapeutical index LD50/ED50: pentetrazole spasm
Protocol: The tests were carried out according to the method of Banzinger and Hane which was adapted to white mice [Arch. Int. Pharmacolyn., 167, 245-249 (1959)]. The test animals were treated perorally with the compounds to be tested. One hour after the administration pentetrazole (6,7,8,9,-tetrahydro-5H-tetrazolozepine) was given intraperitoneally in a dosis of 125 mg/kg. The tonic-extensoric spasms on the hind limbs were registered.

[5] = system: electroshock provoked by electric current; assay: Anticonvulsive activity on mice (inhibition of electroshock); assay type: in vivo; conditions: for ED50: Mus musculus, po
Protocol: The tests were carried out according to the method of Swinyard et al. [I. Pharmacol. Exp. Ther., 106, 319-330 (1952)] which method is based on the inhibition of electroshock provoked by electric current on mice. The compounds to be tested were administered perorally. One hour later electroshocks were given by using corneal electrodes. The frequency of the electroshocks was 50 Hz, the current intensity 45 mA and the duration 0.4 sec. The full inhibition of the tonic-extensoric spasm on the hind limbs was considered as the criterium of the anticonvulsive activity. As reference compound phenobarbital, trimetadone and traboxopin were used.

[6] = system: arrhythmia provoked by aconitine; assay: Antiarrhythmic activity on rats (arrhythmia provoked by aconitine); assay type: in vivo; conditions: p.o., 4 mg/kg, 30 minutes prior to aconitine 75 μg/kg i.v.
Protocol: The antiarrhythmic activity of the novel compounds was examined by influencing the arrhythmia provoked by aconitine on rats weighing 160 to 200 g according to a modified method of Marmo et al. [Arzneim.-Forsch., 20, 12 (1970)]. The animals were anaesthetized by the administration of 1.2 g/kg of ethyl urethane, intraperitoneally. Aconitine was given at a dosage of 75 μg/kg, intravenously. The compounds to be tested were administered perorally 30 minutes prior to the treatment with aconitine. In the test, lidocaine and quinidine was employed for comparison.

tetrabenazine ptosis = assay: Antagonism of tetrabenazine ptosis on mice; conditions: for ED50: Mus musculus, po; for Therapeutical index LD50/ED50: tetrabenazine ptosis, mice, p.o.
Protocol: Groups consisting of 10 mice each were treated, perorally, with different doses of the compounds to be tested. The control group was treated only with the corresponding carrier. After 30 minutes, tetrabenazine [3-isobutyl-9,10-dimethoxy-1,2,3,4,6,7-hexahydrobenzo[a]quinolizine-2-one]was administered intraperitoneally at a dosage of 50 mg/kg. The number of animals having closed palpebral fissure was determined in each group after 30, 60, 90 and 120 minutes. Then, the mean value of ptosis was calculated in each group, and the deviation from that of the control group (i.e. the inhibition) was expressed in percentage. From the data obtained, the ED50 -value and the therapeutical index were determined for each novel compound tested as well as for amitryptiline [5-(3-dimethylaminopropylidine)-10,11-dihydro-5H-dibenzo[a,d]cycloheptene hydrochloride] and traboxopin [2-chloro-12(3-dimethylamino-2-methylpropyl)-12H-dibenzo[d,g][1,3,6]dioxazocine] employed for comparison.

[7] = white mice, p.o., 7 days observation, Litchfield and Wilcoxon, read-out: LD50 p.o.
[8] = mice, p.o., 1 h before pentetrazole 125 mg/kg i.p., read-out: ED50
[9] = mice, p.o., 1 h before electroshock (50 Hz, 45 mA, 0.4 sec), full inhibition of tonic-extensoric spasm, read-out: ED50

Row | SMILES | ED50 [2] [mg/kg] | Therapeutical index LD50/ED50 [2] | Therapeutical index LD50/ED50 ([3]; narcosis potentiation) | ED50 (mice) [mg/kg] | Therapeutical index LD50/ED50 (mice) | ED50 [4, 8] [mg/kg] | Therapeutical index LD50/ED50 ([4]; mice, p.o.) | other results
1 | CC(C)NCCCN1c2ccccc2OCOc2ccc(Cl)cc21 [Example 2, 2-Chloro-12-(3-isopropylaminopropyl)-12H-dibenzo[d,g][1,3,6]dioxazocine maleate] | 5.2 | 134.6 | – | – | – | – | – | LD50 at 168 h [1, 7]: 700 mg/kg
2 | CNCC(C)CN1c2ccccc2OCOc2ccc(Cl)cc21 (centres unmarked) [Example 3, 2-Chloro-12-(3-methylamino-2-methylpropyl)-12H-dibenzo[d,g][1,3,6]dioxazocine hydrochloride] | 6.4 | 78.1 | 208 | 27 | 18.50 | 19 | 26.3 | LD50 at 168 h [1, 7]: 500 mg/kg; ED50 [3]: 2.4 mg/kg; Therapeutical index compared with the known reference compounds ([3]; narcosis potentiation, statement on Table II): several times higher than that of the known reference compounds
3 | CNCCCN1c2ccccc2OCOc2ccc(Cl)cc21 [Example 4, 2-Chloro-12-(3-methylaminopropyl)-12H-dibenzo[d,g][1,3,6]dioxazocine maleate] | – | – | – | – | – | 25 | 28.8 | LD50 at 168 h [1, 7]: 720 mg/kg; ED50 [5]: 40 mg/kg; Therapeutical index LD50/ED50 ([5]; electroshock, mice, p.o.): 19; Therapeutic index compared with that of the reference compounds ([5]; electroshock, mice, statement on Table VII): 3-5 fold; Inhibition in percentage ([6]; maleate): 90.9% and 90%; ED50 (tetrabenazine ptosis): 7.3 mg/kg; Therapeutical index LD50/ED50 (tetrabenazine ptosis): 98.6
4 | CN(C)CCC=C1c2ccccc2CCc2ccccc21 [amitryptiline, 5-(3-dimethylaminopropylidine)-10,11-dihydro-5H-dibenzo[a,d]cycloheptene hydrochloride] | – | – | – | – | – | – | – | ED50 (tetrabenazine ptosis): 12 mg/kg; Therapeutical index LD50/ED50 (tetrabenazine ptosis): 18.7
5 | CNC1=Nc2ccc(Cl)cc2C(c2ccccc2)=[N+]([O-])C1 [chlordiazepoxide, 7-chloro-2-methylamino-5-phenyl-3H-1,4-benzodiazepine-4-oxide] | – | – | 62.0 | 60 | 10.3 | – | – | ED50 [3]: 10 mg/kg
6 | CCN(CC)CC(=O)Nc1c(C)cccc1C [lidocaine] | – | – | – | – | – | – | – | Inhibition in percentage [6]: 23.4%
7 | CCCC(C)(COC(N)=O)COC(N)=O [meprobamate, 2-methyl-2-propylpropandiol-1,3-dicarbamate] | – | – | 4.2 | 270 | 4.1 | – | – | ED50 [3]: 260 mg/kg
8 | CCC1(c2ccccc2)C(=O)NC(=O)NC1=O [phenobarbital, 5-ethyl-5-phenylbarbituric acid] | – | – | – | – | – | – | 8.8 | ED50 [4]: 19 mg/kg; ED50 [5]: 24.5 mg/kg; Therapeutical index LD50/ED50 ([5]; electroshock, mice, p.o.): 6.8
9 | C=C[C@H]1C[N@@]2CC[C@H]1C[C@@H]2[C@@H](O)c1ccnc2ccc(OC)cc12 [quinidine] | – | – | – | – | – | – | – | Inhibition in percentage [6]: 27.3%
10 | CC(CN(C)C)CN1c2ccccc2OCOc2ccc(Cl)cc21 (centres unmarked) [traboxopin, 2-chloro-12-(3-dimethylamino-2-methylpropyl)-12H-dibenzo[d,g][1,3,6]dioxazocine] | 25 | 10.8 | 10.8 | 25 | 10.8 | 32 | 8.4 | LD50 at 168 h ([1]; reference compounds, printed in Table II, read-out: LD50): 270 mg/kg; ED50 [5, 9]: 54 mg/kg; Therapeutical index LD50/ED50 ([5]; electroshock, mice, p.o.): 5.0
11 | OC(CCN1CCCCC1)(c1ccccc1)C1CCCCC1 (centres unmarked) [trihexyphenidyl] | 15 | 24.3 | – | – | – | – | – | –
12 | CN1C(=O)OC(C)(C)C1=O [trimetadione, 3,5,5-trimethyl-oxazolidine-2,4-dione] | – | – | – | – | – | 400 | 5.5 | ED50 [5, 9]: 490 mg/kg

Reference: patent publication US4965259A, “Dioxazocine derivatives compositions and methods containing them having antidepressive, spasmolytic, anticonvulsive, and antiarrhythmic properties” (EGIS Gyogyszergyar, priority 1987, dated 1990)
